Some test systems named below: SNB-75 CNS; SW-620 colon; HCT-15 colon; SN12C renal; SK-MEL-2 melanoma; OVCAR-3 ovarian; M14 melanoma; MCF7 breast.
Assay in all cases: NCI tumour cell line growth inhibition, 48 h

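1) Cells in 96-well plates. 2) Compound, 48 h, 5 concentrations. 3) Linear interpolation between surrounding doses. 4) Unreached endpoint = highest concentration. Here, GI50 denotes the concentration required for 50% inhibition of growth. TGI is the concentration that stops growth completely.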

For `COc1ccc(OC)c(/C=N/N=C(\N)NO)c1`, the TGI with SNB-75 CNS, with SW-620 colon, with HCT-15 colon, in the test on SN12C renal, with SK-MEL-2 melanoma and with OVCAR-3 ovarian was above 100 µM throughout. In the test with M14 melanoma, this molecule registered a TGI of 89.4 µM.
For `CC(=O)[CH-]C(=O)c1ccccc1.CC(=O)[CH-]C(=O)c1ccccc1.O=S(=O)([O-])c1cc([O-])c2c([O-])cc(S(=O)(=O)[O-])cc2c1.[Na+].[Zr+4]`, the GI50 is 49 µM with SNB-75 CNS; above 100 µM in the test on SW-620 colon; above 100 µM in the test on HCT-15 colon; 97.3 µM in the test with SN12C renal; above 100 µM in the test with SK-MEL-2 melanoma; above 100 µM in the test on OVCAR-3 ovarian. Besides, in the test on M14 melanoma, the GI50 is 52.2 µM. The TGI with SNB-75 CNS, in the test with SW-620 colon, with HCT-15 colon, with SN12C renal, in the test on SK-MEL-2 melanoma and with OVCAR-3 ovarian was above 100 µM in each case. In the test with M14 melanoma, this molecule displayed a TGI above 100 µM.
As to `Cc1nc2c(o1)C(=Nc1ccccc1)c1nc(C)oc1C2=Nc1ccccc1`, the TGI with SNB-75 CNS was 28.6 µM; in the test on SW-620 colon it was above 100 µM; in the test with HCT-15 colon, above 100 µM; with SN12C renal it was 34.8 µM; in the test with SK-MEL-2 melanoma it was 72.6 µM; in the test with OVCAR-3 ovarian, above 100 µM. Further, the TGI in the test on M14 melanoma was above 100 µM.
Regarding `Nc1ccccc1C(=O)CCC1C(=O)NC(=S)NC1=O`, the TGI in the test with SNB-75 CNS was above 89.6 µM; in the test on SW-620 colon, above 100 µM; in the test with HCT-15 colon, above 100 µM; with MCF7 breast, above 100 µM; in the test with SK-MEL-2 melanoma it was above 100 µM; in the test with OVCAR-3 ovarian, above 100 µM. In the test on M14 melanoma, this molecule showed a TGI above 100 µM.
With `COC1OC2COC(C)(C)OC2C(OC(C)=O)C1NC(=O)N(CCCl)N=O` (stereo not given), the TGI in the test on SNB-75 CNS, in the test with SW-620 colon, in the test on HCT-15 colon, in the test with SN12C renal, with SK-MEL-2 melanoma and in the test with OVCAR-3 ovarian was above 100 µM each time. This molecule registered a TGI in the test on M14 melanoma above 100 µM.
For the molecule `Cc1cc(=O)n(-c2cc3cccccc-3n2)[nH]1`, the TGI in the test with SNB-75 CNS amounted to 31.7 µM; in the test with SW-620 colon, 13 µM; in the test with HCT-15 colon, 25.5 µM; in the test with SN12C renal, 62.3 µM; with OVCAR-3 ovarian it was 8.23 µM; in the test with M14 melanoma it was 19.6 µM.
On to `CC(=O)[C@H]1CCC2[C@@H]3CC=C4C[C@@H]([O-])CC[C@]4(C)C3CC[C@@]21C.CC(=O)[C@H]1CCC2[C@@H]3CC=C4C[C@@H]([O-])CC[C@]4(C)C3CC[C@@]21C.CC(=O)[CH-]C(=O)c1ccccc1.CC(=O)[CH-]C(=O)c1ccccc1.Cl.[Ti+4]` (stereo not given in full), for which the GI50 in the test on SNB-75 CNS was 24.4 µM; in the test on SW-620 colon it was 39 µM; in the test with HCT-15 colon, 17.6 µM; in the test with SN12C renal, 34.1 µM; in the test on SK-MEL-2 melanoma, 14.7 µM; with OVCAR-3 ovarian, 39.5 µM. The GI50 with M14 melanoma is 18.8 µM. Moreover, the TGI in the test with SNB-75 CNS is 66.2 µM; in the test with SW-620 colon, above 100 µM; in the test on HCT-15 colon, above 100 µM; in the test with SN12C renal it was above 100 µM; in the test on SK-MEL-2 melanoma, 31 µM; with OVCAR-3 ovarian it was above 100 µM. The same molecule showed a TGI in the test on M14 melanoma of 46.1 µM.
On to `CN(/N=C/c1ccnc2ccccc12)c1c([N+](=O)[O-])cc([N+](=O)[O-])cc1[N+](=O)[O-]`, for which the TGI was above 100 µM with SNB-75 CNS; above 100 µM in the test on SW-620 colon; above 100 µM in the test with HCT-15 colon; above 100 µM with SN12C renal; 89.1 µM in the test with SK-MEL-2 melanoma; above 100 µM in the test with OVCAR-3 ovarian. The molecule also yielded a TGI with M14 melanoma above 100 µM.
Turning to `O=C(/C=C\c1cccc2ccccc12)c1ccc(Cl)cc1Cl`, the TGI was above 100 µM with SNB-75 CNS; 34.2 µM in the test on SW-620 colon; 26.6 µM in the test on HCT-15 colon; above 100 µM in the test with SN12C renal; 43.5 µM in the test with OVCAR-3 ovarian; 41.3 µM in the test on M14 melanoma.
Consider `Cc1cc(C)c(-c2noc(-c3ccc(Cl)cc3)c2C2=NCCCN2)c(C)c1`, for which the TGI with SW-620 colon was above 100 µM; in the test on HCT-15 colon, above 100 µM; with SN12C renal, 82.6 µM; with SK-MEL-2 melanoma, 49.9 µM; in the test with OVCAR-3 ovarian, above 100 µM; in the test on M14 melanoma, 6.11 µM.
Regarding `COC(=O)C1=CC2C=CC(C1C(=O)OC)C1C(C(=O)OC)=C(C(=O)OC)C(C(=O)OC)=C(C(=O)OC)C21OC` (stereo not given), the TGI with SNB-75 CNS, with SW-620 colon, with HCT-15 colon, with SN12C renal, with SK-MEL-2 melanoma and in the test on OVCAR-3 ovarian was above 100 µM in each case. The same molecule returned a TGI in the test with M14 melanoma above 100 µM.
Turning to `COc1cc(/C=N/N=C(\N)NO)c(Cl)cc1O`, the TGI in the test on SW-620 colon, with HCT-15 colon, in the test with SN12C renal and with SK-MEL-2 melanoma was above 100 µM each time.
With `O=C1c2ccccc2C2CCC1c1ccccc12` (stereo not given), the TGI in the test on SNB-75 CNS is above 100 µM; in the test with SW-620 colon, above 100 µM; with HCT-15 colon, above 100 µM; with SN12C renal it was above 100 µM; in the test with SK-MEL-2 melanoma, 94 µM; in the test on OVCAR-3 ovarian it was above 100 µM. Besides, the TGI in the test with M14 melanoma is above 100 µM.
Consider `CN(/N=C\c1ccnc2ccccc12)c1ccc([N+](=O)[O-])cc1`, for which the TGI in the test on SNB-75 CNS, in the test on SW-620 colon, in the test on HCT-15 colon, in the test with SN12C renal, in the test on SK-MEL-2 melanoma and in the test on OVCAR-3 ovarian was above 100 µM each time. In the test on M14 melanoma, this molecule gave a TGI above 100 µM.
Consider `CC(=O)[CH-]C(=O)c1ccccc1.CC(=O)[CH-]C(=O)c1ccccc1.CC(=O)[CH-]C(=O)c1ccccc1.[Nd+3].[OH3+]`, for which the GI50 with SNB-75 CNS was 6.66 µM; with SW-620 colon, 55.2 µM; in the test on HCT-15 colon, 42 µM; with SN12C renal, 42.3 µM; in the test with SK-MEL-2 melanoma, 25.9 µM; in the test with OVCAR-3 ovarian it was 45.7 µM. Moreover, the GI50 with M14 melanoma is 43.2 µM. Besides, the TGI in the test on SNB-75 CNS was 43.4 µM; in the test with SW-620 colon, above 100 µM; with HCT-15 colon, above 100 µM; with SN12C renal, above 100 µM; in the test on SK-MEL-2 melanoma, above 100 µM; with OVCAR-3 ovarian, above 100 µM. For the same molecule, in the test with M14 melanoma, the TGI is above 100 µM.

(Values after PubChem BioAssay (NCI).)
